Source: patent US12612397B2, “Methods and compositions for modulating splicing” (Skyhawk Therapeutics, Inc., priority 2019, dated 2026)

Experiments:
[1] = tested on: MDR1; assay: in vitro; settings: dog, MDCK-MDR1, pH 7.4
Procedure: (§1) The permeability of compounds is assessed for BBB penetration potential by use of an MDCK-MDR1 assay (Catalog EA203) performed by Absorption Systems, Exton PA.
(§2) MDR1-MDCK cell monolayers are grown to confluence on collagen-coated, microporous membranes in 12-well assay plates. The permeability assay buffer is Hanks' balanced salt solution containing 10 mM HEPES and 15 mM glucose at a pH of 7.4. The buffer in the receiver chamber also contained 1% bovine serum albumin. The dosing solution concentration is 5 μM of test article in the assay buffer. Cell monolayers are dosed on the apical side (A-to-B) or basolateral side (B-to-A) and incubated at 37° C. with 5% CO2 in a humidified incubator. Samples are taken from the donor and receiver chambers at 120 minutes. Each determination is performed in duplicate. The flux of lucifer yellow is also measured post-experimentally for each monolayer to ensure no damage is inflicted to the cell monolayers during the flux period. All samples are assayed by LC-MS/MS using electrospray ionization.
(§3) Efflux ratio (ER) is defined as Papp (B-to-A)/Papp (A-to-B).
(§4) • Column: Waters ACQUITY UPLC BEH Phenyl 30×2.1 mm, 1.7 μm • M.P. Buffer: 25 mM ammonium formate buffer, pH 3.5 • Aqueous Reservoir (A): 90% water, 10% buffer • Organic Reservoir (B): 90% acetonitrile, 10% buffer • Flow Rate: 0.7 mL/minute Gradient Program:
(§5) • Total Run Time: 1.00 minute • Autosampler: 2 μL injection volume • Wash1: water/methanol/2-propanol:1/1/1; with 0.2% formic acid • Wash2: 0.1% formic acid in water

[2] = tested on: MDR1-MDCK cell monolayers; settings: dog, MDCK-MDR1, 120 min, 5 μM, pH 7.4
Procedure: as §1, §2, §3, §4, §5

[3] = tested on: SMN protein; assay: SMN protein assay (MSD) in SMA patient fibroblasts (GM03813); format: cell-based, human; settings: SMN protein by MSD, SMA patient fibroblasts GM03813, 48 hours
Procedure: Compounds were tested on spinal muscular atrophy (SMA) patient fibroblasts (GM03813, Coriell) at doses ranging from 2.5 μM to 0.6 nM. 7000 cells/well were seeded in 96-well plates. Compounds were incubated for 48 hours and the cells were lysed with 100 μL of lysis buffer. 20 μL of lysate was used for SMN protein measurement by Mesoscale Discovery (MSD) assay developed by PharmOptima (Michigan). A standard curve prepared with SMN protein ranging from 1 μg/ml to 19.5 pg/ml was used in each MSD plate to calculate the absolute SMN protein amount in each sample.

[4] = tested on: SMN FL; assay: Quantitative splicing assay (SMN) in SMA patient fibroblasts (GM03813); format: cell-based; settings: Homo sapiens, Fibroblast; SMA patient fibroblasts GM03813, 24 h, qPCR
Procedure: Spinal muscular atrophy (SMA) patient fibroblasts (GM03813, Coriell) are plated in 96-well plates at 50,000 cells/well. Immediately after plating, cells are dosed with compounds for 24 h at concentrations ranging from 2.5 μM to 0.6 nM (0.1% DMSO). Treated cells are lysed and cDNA synthesized using the Fast Advanced Cells-to-Ct kit (Thermofisher A35378) according to the manufacturer's instructions. 2 μL of each cDNA are used in qPCR reactions. The qPCR reactions are prepared in 384-well plates in 10 μL volume, using TaqMan™ Fast Advanced Master Mix (ThermoFisher; 4444965) with primers and probes shown in the table below. Reactions are run in a Quant Studio 6 qPCR instrument with default settings.

Compound | Papp A→B at 120 min, 5 μM [1] [×10⁻⁶ cm/s] | Papp B→A at 120 min, 5 μM [1] [×10⁻⁶ cm/s] | efflux ratio at 120 min, 5 μM [1] | MDCK-MDR1: % Recov A-B [2] [%] | MDCK-MDR1: % Recov B-A [2] [%] | EC50 [3] [nM] | EC50 [4] [nM]
CN(c1ncc(-c2ccc(-c3cn[nH]c3)cc2O)nn1)[C@@H]1C[C@H]2CC[C@H](N2)[C@@H]1F (single isomer, unassigned) [Compound 1A] | 3.47 | 51.6 | 15 | 86 | 89 | 16 to 50 | 0.01 to 15
CN(c1ncc(-c2ccc(-c3cn[nH]c3)cc2O)nn1)[C@H]1C[C@@H]2CC[C@@H](N2)[C@H]1F (single isomer, unassigned) [Compound 1B] | 2.95 | 33.2 | 11 | 78 | 90 | 0.01 to 15 | 101 to 500
CN(c1ncc(-c2ccc(-c3cnn(C)c3)cc2O)nn1)[C@@H]1C[C@H]2CCC[C@H](N2)[C@@H]1F (single isomer, unassigned) [Compound 2A] | 4.48 | 30.3 | 7 | 81 | 84 | 51 to 100 | 
CN(c1ncc(-c2ccc(-c3cnn(C)c3)cc2O)nn1)[C@H]1C[C@@H]2CCC[C@@H](N2)[C@H]1F (single isomer, unassigned) [Compound 2B] | 6.89 | 32.9 | 5 | 69 | 83 | 16 to 50 | 
CN(c1ncc(-c2cc3ccncc3s2)nn1)[C@@H]1C[C@H]2CC[C@H](N2)[C@@H]1F (single isomer, unassigned) [Compound 8A] | 13.5 | 37.3 | 3 | 87 | 93 | 501 to 10000 | 
CN(c1ncc(-c2cc3ccncc3s2)nn1)[C@H]1C[C@@H]2CC[C@@H](N2)[C@H]1F (single isomer, unassigned) [Compound 8B] | 12.9 | 49.6 | 4 | 79 | 81 | 501 to 10000 | 
CN(C)C(=O)c1cc2cc(O)c(-c3cnc(N(C)[C@@H]4C[C@H]5CC[C@H](N5)[C@@H]4F)nn3)cc2o1 (single isomer, unassigned) [Compound 9A] | 2.55 | 61.2 | 24 | 92 | 100 |  | 
CN(C)C(=O)c1cc2cc(O)c(-c3cnc(N(C)[C@H]4C[C@@H]5CC[C@@H](N5)[C@H]4F)nn3)cc2o1 (single isomer, unassigned) [Compound 9B] | 2.4 | 58.5 | 24 | 88 | 97 |  | 
